Results published in patent publication US6362188B1, “Farnesyl protein transferase inhibitors” (Schering Corporation, priority 1998, dated 2002).

Test system: Human tumor cells
Experiment: Soft Agar Assay (anchorage-independent growth)
Format: cell-based
Conditions: colony outgrowth in soft agar, stated as a range for the group
Experimental: Anchorage-independent growth is a characteristic of tumorigenic cell lines. Human tumor cells can be suspended in growth medium containing 0.3% agarose and an indicated concentration of a farnesyl transferase inhibitor. The solution can be overlayed onto growth medium solidified with 0.6% agarose containing the same concentration of farnesyl transferase inhibitor as the top layer. After the top layer is solidified, plates can be incubated for 10-16 days at 37° C. under 5% CO2 to allow colony outgrowth. After incubation, the colonies can be stained by overlaying the agar with a solution of MTT (3-[4,5-dimethyl-thiazol-2-yl]-2,5-diphenyltetrazolium bromide, Thiazolyl blue) (1 mg/mL in PBS). Colonies can be counted and the IC50's can be determined.

SMILES | IC50 [nM]
Cc1cn(CC2CCCN(C(=O)C3CN(C4c5ccc(Cl)cc5CCc5cccnc54)CCN3C(=O)NC(C)(C)C)C2)cn1 (centres unmarked) [Example 50] | 0.5 to 30
Cc1nccn1C[C@@H]1CCCN(C(=O)[C@H]2CN([C@H]3c4ccc(Cl)cc4CCc4cccnc43)CCN2C(=O)OC(C)(C)C)C1 [Example 30] | 0.5 to 30
Cc1cn(C[C@@H]2CCCN(C(=O)[C@H]3CN([C@H]4c5ccc(Cl)cc5CCc5cc(Cl)cnc54)CCN3C(=O)C(C)(C)C)C2)cn1 [Example 240] | 0.05 to 30
Cc1cn(C[C@@H]2CCCN(C(=O)[C@H]3CN([C@@H]4c5ccc(Cl)cc5CCc5cc(Cl)cnc54)CCN3C(=O)C(C)(C)C)C2)cn1 [Example 239] | 0.05 to 30
Cc1nc(C)n(CC2CCCN(C(=O)C3CN(C4c5ccc(Cl)cc5CCc5cc(Br)cnc54)CCN3C(=O)OC(C)(C)C)C2)c1C (centres unmarked) [Example 158] | 0.05 to 30
Cc1cn(CC2CN(C(=O)C3CN(C4c5ccc(Cl)cc5CCc5cc(Br)cnc54)CCN3C(=O)OC(C)(C)C)CCS2(=O)=O)cn1 (centres unmarked) [Example 150] | 0.05 to 30
Cc1nc(C)n(CC2CCCN(C(=O)C3CN(C4c5ccc(Cl)cc5CCc5cccnc54)CCN3C(=O)OC3CCCCC3)C2)c1C (single isomer, unassigned) [47(P)] | 0.05 to 30
Cc1cn(C[C@@H]2CCCN(C(=O)[C@H]3CN([C@@H]4c5ccc(Cl)cc5CCc5cc(Cl)cnc54)CCN3C(=O)OC(C)C)C2)cn1 [Example 231] | 0.05 to 30
Cc1nccn1CC1CCCN(C(=O)C2CN(C3c4ncccc4CCc4cccc(Cl)c43)CCN2C(=O)OC(C)(C)C)C1 (centres unmarked) [Example 395] | 0.05 to 30
Cc1cn(C[C@@H]2CCCN(C(=O)[C@H]3CN([C@H]4c5ccc(Cl)cc5CCc5cc(Cl)cnc54)CCN3C(=O)NC(C)(C)C)C2)cn1 [Example 238] | 0.05 to 30
CC1CCC(Cn2ccnc2)CN1C(=O)[C@H]1CN([C@H]2c3ccc(Cl)cc3CCc3cccnc32)CCN1C(=O)OC1CCCCC1 (some centres unmarked) [Example 424] | 0.05 to 30
Cc1cn(C[C@H]2CCCN(C(=O)[C@H]3CN([C@@H]4c5ccc(Cl)cc5CCc5cc(Br)cnc54)CCN3C(=O)OCC(C)(C)C)C2)cn1 [Example 187] | 0.05 to 30
Cc1nccn1CC1CN(C(=O)C2CN(C3c4ccc(Cl)cc4CCc4cc(Br)cnc43)CCN2C(=O)OC(C)(C)C)CCS1(=O)=O (centres unmarked) [Example 151] | 0.05 to 30
Cc1cn(C[C@@]2(C)CCCN(C(=O)[C@H]3CN([C@H]4c5ccc(Cl)cc5CCc5cccnc54)CCN3C(=O)OC3CCCCC3)C2)cn1 [Example 416] | 0.05 to 30
Cc1cn(C[C@@H]2CCCN(C(=O)[C@H]3CN([C@H]4c5ccc(Cl)cc5CCc5cc(Br)cnc54)CCN3C(=O)OC3CCCCC3)C2)cn1 [Example 172] | 0.05 to 30
Cc1nc(C)n(C[C@H]2CCCN(C(=O)[C@H]3CN([C@H]4c5ccc(Cl)cc5CCc5cc(Br)cnc54)CCN3C(=O)OC3CCCCC3)C2)c1C [Example 214] | 0.05 to 30
Cc1cn(C[C@@H]2CCCN(C(=O)[C@H]3CN([C@H]4c5ccc(Cl)cc5CCc5cc(Br)cnc54)CCN3C(=O)C3(C)CC3)C2)cn1 [Example 201] | 0.05 to 30
Cc1cn(CC2CCCN(C(=O)C3CN(C4c5ccc(Cl)cc5CCc5cc(Br)cnc54)CCN3C(=O)OCC(C)(C)C)C2)cn1 (centres unmarked) [Example 188] | 0.05 to 30
CC(C)(C)OC(=O)N1CCN(C2c3ccc(Cl)cc3CCc3cc(Br)cnc32)C[C@@H]1C(=O)N1CCCCC1CCn1ccnc1 (stereo partly drawn) [Example 74, 1,1-dimethylethyl-4-(3-bromo-8-chloro-6,11-dihydro-5H-benzo[5,6]cyclohepta[1,2-b]pyridin-11-yl)-2(R)-[[2-[2-(1H-imidazol-1-yl)ethyl]-1-piperidinyl]carbonyl]-1-piperazinecarboxylate] | 0.5 to 30
Cc1cncn1CC1CN(C(=O)C2CN(C3c4ccc(Cl)cc4CCc4cc(Br)cnc43)CCN2C(=O)OC(C)(C)C)CCS1(=O)=O (centres unmarked) [Example 152] | 0.05 to 30
Cc1cn(CC2(O)CCCN(C(=O)[C@H]3CN([C@H]4c5ccc(Cl)cc5CCc5cccnc54)CCN3C(=O)OCc3ccccc3)C2)cn1 (single isomer, unassigned) [Example 422] | 0.05 to 30
Cc1cn(CC2CN(C(=O)C3CN(C4c5ccc(Cl)cc5CCc5cccnc54)CCN3C(=O)OC3CCCCC3)CCS2(=O)=O)cn1 (single isomer, unassigned) [47(L)] | 0.05 to 30
Cc1cn(CC2CCCN(C(=O)C3CN(C4c5ccc(Cl)cc5CCc5cc(Cl)cnc54)CCN3C(=O)OCC(C)(C)C)C2)cn1 (centres unmarked) [Example 233] | 0.05 to 30
Cc1cn(CC2CCCN(C(=O)C3CN(C4c5ccc(Cl)cc5CCc5cc(Br)cnc54)CCN3C(=O)C(C)(C)C)C2)cn1 (centres unmarked) [Example 180] | 0.05 to 30
Cc1cn(CC2CCCN(C(=O)C3CN(C4c5ccccc5CCc5cc(Cl)cnc54)CCN3C(=O)OCC3CC3)C2)cn1 (centres unmarked) [Example 300] | 0.05 to 30
Cc1cn(CC2CCCN(C(=O)C3CN(C4c5ccccc5CCc5cc(Cl)cnc54)CCN3C(=O)OCC(C)(C)C)C2)cn1 (centres unmarked) [Example 298] | 0.05 to 30

Second part, the molecule after the results:

IC50 [nM] | SMILES
0.05 to 30 | Cc1cn(C[C@@H]2CCCN(C(=O)[C@H]3CN([C@H]4c5ccccc5CCc5cc(Cl)cnc54)CCN3C(=O)NC(C)(C)C)C2)cn1 [Example 302]
0.05 to 30 | Cc1cn(C[C@@H]2CCCN(C(=O)[C@H]3CN([C@@H]4c5ccccc5CCc5cc(Cl)cnc54)CCN3C(=O)OCC3CC3)C2)cn1 [Example 299]
0.05 to 30 | Cc1cn(C[C@@H]2CCCN(C(=O)[C@H]3CN([C@@H]4c5ccccc5CCc5cc(Cl)cnc54)CCN3C(=O)NC(C)(C)C)C2)cn1 [Example 301]
0.05 to 30 | Cc1nccn1CC1CN(C(=O)C2CN(C3c4ccc(Cl)cc4CCc4cccnc43)CCN2C(=O)OC(C)(C)C)CCS1(=O)=O (centres unmarked) [35(E)]
0.05 to 30 | Cc1[nH]cnc1CC1CN(C(=O)C2CN(C3c4ccc(Cl)cc4CCc4cc(Br)cnc43)CCN2C(=O)OC(C)(C)C)CCS1(=O)=O (single isomer, unassigned) [Example 156]
0.05 to 30 | CC(C)(C)OC(=O)N1CCN(C2c3ccc(Cl)cc3CCc3cc(Br)cnc32)CC1C(=O)N1CCS(=O)(=O)C(Cc2c[nH]cn2)C1 (centres unmarked) [Example 155]
0.05 to 30 | Cc1cn(CC2CCCN(C(=O)C3CN(C4c5ncccc5CCc5cc(Cl)cc(Br)c54)CCN3C(=O)OC(C)(C)C)C2)cn1 (single isomer, unassigned) [Example 407]
0.05 to 30 | Cc1cn(C[C@@H]2CCCN(C(=O)[C@H]3CN([C@H]4c5ccc(Cl)cc5CCc5cc(Cl)cnc54)CCN3C(=O)OCC(C)(C)C)C2)cn1 [Example 234]
0.05 to 30 | Cc1cn(CC2CCCN(C(=O)C3CN(C4c5ncccc5CCc5cccc(Cl)c54)CCN3C(=O)OC3CCCCC3)C2)cn1 (single isomer, unassigned) [Example 391]
0.05 to 30 | Cc1cn(CC2CCCN(C(=O)C3CN(C4c5ccc(Cl)cc5CCc5cc(Br)cnc54)CCN3C(=O)NC(C)(C)C)C2)cn1 (centres unmarked) [Example 177]
0.05 to 30 | Cc1cn(C[C@@H]2CCCN(C(=O)[C@H]3CN([C@@H]4c5ccccc5CCc5cc(Cl)cnc54)CCN3C(=O)C(C)(C)C)C2)cn1 [Example 303]
0.05 to 30 | Cc1cn(CC2CCCCN(C(=O)C3CN(C4c5ccc(Cl)cc5CCc5cccnc54)CCN3C(=O)OC3CCCCC3)C2)cn1 (single isomer, unassigned) [Example 409]
0.05 to 30 | Cc1cn(C[C@@H]2CCCN(C(=O)[C@H]3CN([C@H]4c5ccc(Cl)cc5CCc5cc(Cl)cnc54)CCN3C(=O)OC(C)C)C2)cn1 [Example 232]
0.05 to 30 | Cc1cn(C[C@H]2CCCN(C(=O)[C@H]3CN([C@H]4c5ccccc5CCc5cc(Cl)cnc54)CCN3C(=O)NC3CCCCC3)C2)cn1 [Example 318]
0.05 to 30 | Cc1cn(CCC2CCCN2C(=O)C2CN(C3c4ccc(Cl)cc4CCc4cccnc43)CCN2C(=O)OC2CCCCC2)cn1 (single isomer, unassigned) [47(S)]
0.05 to 30 | Cc1nccn1CC1CCCN(C(=O)C2CN(C3c4ncccc4CCc4cccc(Cl)c43)CCN2C(=O)OC(C)(C)C)C1 (single isomer, unassigned) [Example 396]
0.05 to 30 | Cc1cn(C[C@H]2CCCN(C(=O)[C@H]3CN([C@@H]4c5ccc(Cl)cc5CCc5cc(Br)cnc54)CCN3C(=O)OC3CCCCC3)C2)cn1 [Example 185]
0.05 to 30 | Cc1cn(C[C@@H]2CCCN(C(=O)[C@H]3CN([C@@H]4c5ccc(Cl)cc5CCc5cc(Br)cnc54)CCN3C(=O)OCC(C)(C)C)C2)cn1 [Example 173]
0.05 to 30 | Cc1[nH]cnc1CC1CN(C(=O)C2CN(C3c4ccc(Cl)cc4CCc4cc(Br)cnc43)CCN2C(=O)OC2CCCCC2)CCS1(=O)=O (single isomer, unassigned) [Example 212]
0.05 to 30 | Cc1cn(C[C@H]2CN(C(=O)[C@H]3CN([C@H]4c5ccc(Cl)cc5CCc5cc(Br)cnc54)CCN3C(=O)OC3CCCCC3)CCS2(=O)=O)cn1 [Example 211]
0.05 to 30 | Cc1c(CO)ncn1CC1CCCN(C(=O)C2CN(C3c4ccc(Cl)cc4CCc4cc(Br)cnc43)CCN2C(=O)OC(C)(C)C)C1 (centres unmarked) [Example 160]
0.05 to 30 | Cc1cn(CC2CCCN(C(=O)C3CN(C4c5ncccc5CCc5cccc(Cl)c54)CCN3C(=O)OC(C)(C)C)C2)cn1 (centres unmarked) [Example 394]
0.05 to 30 | Cc1cn(C[C@H]2CCCN(C(=O)[C@H]3CN([C@H]4c5ccccc5CCc5cc(Cl)cnc54)CCN3C(=O)C(C)(C)C)C2)cn1 [Example 316]
0.05 to 30 | Cc1cn(C[C@@H]2CCCN(C(=O)[C@H]3CN([C@@H]4c5ccccc5CCc5cc(Cl)cnc54)CCN3C(=O)OCC(C)(C)C)C2)cn1 [Example 297]
0.05 to 30 | Cc1cn(C[C@@H]2CCCN(C(=O)[C@H]3CN([C@@H]4c5ccc(Cl)cc5CCc5cc(Br)cnc54)CCN3C(=O)C(C)(C)C)C2)cn1 [Example 179]
0.05 to 30 | Cc1cn(CC[C@@H]2CCCN2C(=O)[C@H]2CN(C3c4ccc(Cl)cc4CCc4cc(Br)cnc43)CCN2C(=O)OC2CCCCC2)cn1 (some centres unmarked) [Example 216]
0.05 to 30 | Cc1cn(C[C@H]2CCCN(C(=O)[C@H]3CN([C@H]4c5ccc(Cl)cc5CCc5cc(Br)cnc54)CCN3C(=O)OC3CCCCC3)C2)cn1 [Example 186]
